From patent US9675697B2 (THE REGENTS OF THE UNIVERSITY OF MICHIGAN, priority 2013, dated 2017)
Like-named read-outs stand apart in the source and are kept apart here.

Experiments:
BRD3 BD2 = BRD3 BD2 (Homo sapiens (Human), UniProt Q15059); assay: FP competitive binding assay using Cpd. No. 350 as the probe
Method: (§3) Fluorescence Polarization (FP) competitive binding studies (see above) were carried out using the FAM labeled fluorescent probe Cpd. No. 350 to determine binding affinities of representative compounds to both BD1 and BD2 of BRD2, BRD3, and BRD4 proteins. Equilibrium dissociation constants (Id) values of Cpd. No. 350 to these six proteins were determined from protein saturation experiments by monitoring the total fluorescence polarization of mixtures composed with the fluorescent probe at a fixed concentration and proteins with increasing concentrations up to full saturation. Serial dilutions of testing protein were mixed with Cpd. No. 350 to a final volume of 200 μl in the assay buffer. […] Plates were incubated at room temperature for 30 minutes with gentle shaking to assure equilibrium. […] Kd values of Cpd.
(§4) The IC50 and Ki values of compounds were determined in a competitive binding experiment as described above. […] FP values were measured as described above. IC50 values were determined by nonlinear regression fitting of the competition curves.

BRD4 BD1 = BRD4 BD1 (Homo sapiens (Human), UniProt O60885); assay: as above
Method: as §3, §4

BRD2 BD2 = BRD2 BD2 (Homo sapiens (Human), UniProt P25440); assay: as above
Method: as §3, §4

BRD2 BD1 = BRD2 BD1 (Homo sapiens (Human), UniProt P25440); assay: as above
Method: as §3, §4

BRD4 BD2 = BRD4 BD2 (Homo sapiens (Human), UniProt O60885); assay: as above
Method: as §3, §4

BRD3 BD1 = BRD3 BD1 (Homo sapiens (Human), UniProt Q15059); assay: as above
Method: as §3, §4

[1] = system: leukemia MOLM-13 cell line; assay: 4-day cell viability assay, CellTiter-Glo; format: cell-based; details: read-out: Cell Growth Inhibition (IC50 (nM)) MOLM-13 Cell Line (CellTiter-Glo assay)
Method: (§1) The effect of representative BET bromodomain inhibitors on cell viability was determined in a 4-day proliferation assay. Cells were maintained in the appropriate culture medium with 10% FBS at 37° C. and an atmosphere of 5% CO2. All the cell lines were used within three months of thawing fresh vials.
(§2) Cells were seeded in 96-well flat bottom (Corning COSTAR, Corning, N.Y., cat#3595) or white opaque cell culture plates (BD Falcon, cat#353296) at a density of 3,000-10,000 cells/well in 75 μl of culture medium. Compounds were serially diluted in the appropriate medium, and 75 μl of the diluted compounds were added to the appropriate wells of the cell plate. After the addition of compounds, the cells were incubated at 37° C. in an atmosphere of 5% CO2 for 4 days. Cell viability was determined using the CellTiter-Glo® Luminescent Cell Viability Assay Kit (Promega, Madison, Wis.) for MOLM-13 cells and WST (2-(2-methoxy-4-nitrophenyl)-3-(4-nitrophenyl)-5-(2,4-disulfophenyl)-2H-tetrazolium, monosodium salt) Cell Counting-8 Kit (Dojindo Molecular Technologies, Inc., Rockville, Md.) for MDA-MB-436 cells according to the manufacturers' instructions.
For the CellTiter-Glo assay, 100 μl of CellTiter-Glo® Reagent was added to each well, and then the plates were incubated at room temperature for 10-20 minutes. The luminescent signal was measured using a Tecan Infinite M1000 multimode microplate reader (Tecan, Morrisville, N.C.). The readings were normalized to the DMSO-treated cells and the IC50 was calculated by nonlinear regression (four parameters sigmoid fitted with variable slope, least squares fit, and no constraint) analysis using the GraphPad Prism 5 software.

[2] = system: breast cancer MDA-MB-436 cell line; assay: 4-day cell viability assay, WST; format: cell-based; details: read-out: Cell Growth Inhibition (IC50 (nM)) MDA-436 Cell Line (WST assay)
Method: as §1, §2
For the WST assay, WST-8 reagent was added to each well at a final concentration of 10% (v/v), and then the plates were incubated at 37° C. for 1-2 hours for color development. The absorbance was measured at 450 nm using a SPECTRAmax PLUS plate reader (Molecular Devices, Sunnyvale, Calif.). The readings were normalized to the DMSO-treated cells and the half maximal inhibitory concentration (IC50) was calculated by nonlinear regression (four parameters sigmoid fitted with variable slope, least squares fit, and no constraint) analysis using the GraphPad Prism 5 software (GraphPad Software, La Jolla, Calif.).

[3] = read-out: BRD3 BD2 Ki, FP, Cpd. No. 350 probe […]
[4] = read-out: BRD4 BD1 Ki, FP, Cpd. No. 350 probe […]
[5] = read-out: BRD2 BD2 Ki, FP, Cpd. No. 350 probe […]
[6] = read-out: BRD2 BD1 Ki, FP, Cpd. No. 350 probe […]
[7] = read-out: BRD4 BD2 Ki, FP, Cpd. No. 350 probe […]
[8] = read-out: BRD3 BD1 Ki, FP, Cpd. No. 350 probe […]
[9] = Homo sapiens, MOLM-13, 96 h, 4 days
[10] = Homo sapiens, MDA-MB-436, 96 h, 4 days

Sequence of BRD3 BD2 (Q15059 306-415): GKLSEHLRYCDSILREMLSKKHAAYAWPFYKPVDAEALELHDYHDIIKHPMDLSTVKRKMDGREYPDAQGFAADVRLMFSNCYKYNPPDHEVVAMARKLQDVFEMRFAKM
Sequence of BRD2 BD2 (P25440 344-453): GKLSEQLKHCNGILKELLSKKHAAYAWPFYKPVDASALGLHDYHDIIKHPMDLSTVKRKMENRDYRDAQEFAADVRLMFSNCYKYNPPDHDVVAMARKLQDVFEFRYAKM
Sequence of BRD2 BD1 (P25440 74-180): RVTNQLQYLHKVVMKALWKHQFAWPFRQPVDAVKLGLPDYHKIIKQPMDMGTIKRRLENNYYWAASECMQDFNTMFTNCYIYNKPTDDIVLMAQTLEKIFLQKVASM
Sequence of BRD3 BD1 (Q15059 34-140): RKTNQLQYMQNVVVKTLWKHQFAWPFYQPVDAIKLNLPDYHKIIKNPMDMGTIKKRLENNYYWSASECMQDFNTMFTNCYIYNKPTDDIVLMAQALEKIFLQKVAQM

SMILES | Ki (BRD3 BD2; [3]) [nM] | Ki (BRD4 BD1; [4]) [nM] | Ki (BRD2 BD2; [5]) [nM] | Ki (BRD2 BD1; [6]) [nM] | Ki (BRD4 BD2; [7]) [nM] | Ki (BRD3 BD1; [8]) [nM] | IC50 [1, 9] [nM] | IC50 [2, 10] [nM] | also measured
COc1cc2c(cc1-c1c(C)noc1C)[nH]c1ccnc(Cl)c12 [RX-3, 4-(1-chloro-8-methoxy-5H-pyrido[4,3-b]indol-7-yl)-3,5-dimethylisoxazole] | 63.8 ± 6 | 305 ± 26 | 109 ± 10 | 215 ± 34 | 194 ± 24 | 144 ± 17 | – | – | –
CCc1noc(CC)c1-c1cc2[nH]c3ccnc(Cl)c3c2cc1OC [RX-45] | 3440 ± 1980 | > 10000 | – | – | 8320 ± 3220 | – | – | – | –
COc1cc2c(cc1-c1c(C)noc1C)[nH]c1nc(C)nc(-c3ccc(C(=O)NC4CCN(C5COC5)CC4)c4ccccc34)c12 [Cpd. No. 197, 4-(7-(3,5-Dimethylisoxazol-4-yl)-6-methoxy-2-methyl-9H-pyrimido[4,5-b]indol-4-yl)-N-(1-(oxetan-3-yl)piperidin-4-yl)-1-naphthamide] | 1.3 | 17.1 | 3.6 | 6.2 | 8.9 | 10.5 | 17.3 | 101 | –
COc1cc2c(cc1-c1c(C)noc1C)[nH]c1nc(C)nc(-c3ccc(NC(=O)N4CCN(C5COC5)CC4)c4ccccc34)c12 [Cpd. No. 317] | – | – | – | – | – | – | – | – | IC50 ([1]; Homo sapiens, MOLM-13, 96 h): 31.6 nM; IC50 ([2]; Homo sapiens, MDA-MB-436, 96 h): 169 nM
CCc1noc(C)c1-c1cc2[nH]c3ccnc(Cl)c3c2cc1OC [RX-39] | 406 ± 192 | 1240 ± 549 | 638 ± 70 | 1720 ± 892 | 478 ± 69 | 668 ± 82 | – | – | –
COc1cc2c(cc1-c1c(C)noc1C)[nH]c1nc(C)nc(-c3cc(C(=O)NC4CCN(C)CC4)cc(C(C)(C)C)c3)c12 [Cpd. No. 319] | – | – | – | – | – | – | – | – | IC50 ([1]; Homo sapiens, MOLM-13, 96 h): 10 nM; IC50 ([2]; Homo sapiens, MDA-MB-436, 96 h): 67.4 nM
COc1cc2c(cc1-c1c(C)noc1C)[nH]c1nc(C)nc(-c3ccc(C(=O)NC4CCN(C)CC4)c4ccccc34)c12 [Cpd. No. 196, 4-(7-(3,5-Dimethylisoxazol-4-yl)-6-methoxy-2-methyl-9H-pyrimido[4,5-b]indol-4-yl)-N-(1-methylpiperidin-4-yl)-1-naphthamide] | 1.4 | 12.3 | 3.5 | 4.3 | 7 | 9.7 | 6.8 | 53 | –
COc1cc2c(cc1-c1c(C)noc1C)[nH]c1nc(C)nc(-c3cccc(C(C)(C)O)c3)c12 [Cpd. No. 183, 2-(3-(7-(3,5-Dimethylisoxazol-4-yl)-6-methoxy-2-methyl-9H-pyrimido[4,5-b]indol-4-yl)phenyl)propan-2-ol] | 4.7 | 7.9 | 8.8 | 5.2 | 11.7 | 6.1 | 20 | 93 | –
COc1cc2c(cc1-c1c(C)noc1C)[nH]c1nc(C)nc(-c3ccc(NC(=O)N4CCN(C)CC4)c4ccccc34)c12 [Cpd. No. 316] | – | – | – | – | – | – | – | – | IC50 ([1]; Homo sapiens, MOLM-13, 96 h): 7.4 nM; IC50 ([2]; Homo sapiens, MDA-MB-436, 96 h): 45.2 nM
COc1cc2c(cc1-c1c(C)noc1C)[nH]c1nc(C)nc(-c3cc(C(=O)NC4CCN(C5CCOCC5)CC4)[nH]c3C(C)C)c12 [Cpd. No. 212, 4-(7-(3,5-Dimethylisoxazol-4-yl)-6-methoxy-2-methyl-9H-pyrimido[4,5-b]indol-4-yl)-5-isopropyl-N-(1-(tetrahydro-2H-pyran-4-yl)piperidin-4-yl)-1H-pyrrole-2-carboxamide] | 1 | 17 | 4.6 | 5.7 | 4.5 | 10.2 | 22 | 100 | –
CCc1onc(C)c1-c1cc2[nH]c3ccnc(Cl)c3c2cc1OC [RX-38] | 1280 ± 1070 | 2810 ± 782 | 1880 ± 432 | 760 ± 240 | 2180 ± 132 | 703 ± 432 | – | – | –
COc1cc2c(cc1-c1c(C)nn(C)c1C)[nH]c1ccnc(-c3c(C)nn(C)c3C)c12 [Cpd. No. 33, 8-methoxy-1,7-bis(1,3,5-trimethyl-1H-pyrazol-4-yl)-5H-pyrido[4,3-b]indole] | – | – | – | – | – | – | – | – | Ki (BRD3 BD2): 348 ± 12 nM; Ki (BRD4 BD1): 1726 ± 17 nM; Ki (BRD2 BD2): 909 ± 272 nM; Ki (BRD2 BD1): 1670 ± 448 nM; Ki (BRD4 BD2): 867 ± 107 nM; Ki (BRD3 BD1): 1220 ± 100 nM
COc1cc2c(cc1-c1c(C)noc1C)[nH]c1nc(C)nc(-c3ccc(C(=O)N4CCN(C)CC4)c4ccccc34)c12 [Cpd. No. 207, (4-(7-(3,5-Dimethylisoxazol-4-yl)-6-methoxy-2-methyl-9H-pyrimido[4,5-b]indol-4-yl)naphthalen-1-yl)(4-methylpiperazin-1-yl)methanone] | 1.3 | 14.7 | 5.1 | 5.3 | 4.1 | 10 | 5.3 | 58.1 | –
COc1cc2c(cc1-c1c(C)nn(C)c1C)[nH]c1ccnc(Cl)c12 [RX-27] | 2050 ± 142 | 4842 ± 29 | 2840 ± 574 | 5450 ± 1920 | 1950 ± 175 | 5030 ± 1010 | – | – | –
COc1cc2c(cc1-c1c(C)noc1C)[nH]c1nc(C)nc(-c3cc(C(=O)NC4CCN(C5COC5)CC4)cc(C(C)(C)C)c3)c12 [Cpd. No. 322] | – | – | – | – | – | – | – | – | IC50 ([1]; Homo sapiens, MOLM-13, 96 h): 19.4 nM; IC50 ([2]; Homo sapiens, MDA-MB-436, 96 h): 63.9 nM
COc1cc2c(cc1-c1c(C)noc1C)[nH]c1ccnc(-c3c(C)nn(-c4ccccc4)c3C)c12 [Cpd. No. 352, 4-(1-(3,5-dimethyl-1-phenyl-1H-pyrazol-4-yl)-8-methoxy-5H-pyrido[4,3-b]indol-7-yl)-3,5-dimethylisoxazole] | 35 ± 2 | 103 ± 3 | 52.9 ± 2.7 | 62.6 ± 9 | 98.1 ± 6.1 | 31.8 ± 1.5 | – | – | IC50 ([1]; 4 days): 751 nM; IC50 ([2]; 4 days): 724 nM
COc1cc2c(cc1-c1c(C)noc1C)[nH]c1ccnc(-c3c(-c4ccccc4)n[nH]c3C)c12 [Cpd. No. 26, 4-(8-methoxy-1-(5-methyl-3-phenyl-1H-pyrazol-4-yl)-5H-pyrido[4,3-b]indol-7-yl)-3,5-dimethylisoxazole] | – | – | – | – | – | – | 431 | 696 | –
COc1cc2c(cc1-c1c(C)noc1C)[nH]c1nc(C)nc(-c3cc(C(=O)NC4CCN(C)CC4)[nH]c3C(C)C)c12 [Cpd. No. 211, 4-(7-(3,5-Dimethylisoxazol-4-yl)-6-methoxy-2-methyl-9H-pyrimido[4,5-b]indol-4-yl)-5-isopropyl-N-(1-methylpiperidin-4-yl)-1H-pyrrole-2-carboxamide] | 1.2 | 17.2 | 4.9 | 5.7 | 5.2 | 10.8 | 10.4 | 140 | –
COc1cc2c(cc1-c1c(C)noc1C)[nH]c1nc(C)nc(-c3cc(C(=O)NC4CCN(C5COC5)CC4)[nH]c3C(C)C)c12 [Cpd. No. 213, 4-(7-(3,5-Dimethylisoxazol-4-yl)-6-methoxy-2-methyl-9H-pyrimido[4,5-b]indol-4-yl)-5-isopropyl-N-(1-(oxetan-3-yl)piperidin-4-yl)-1H-pyrrole-2-carboxamide] | 2.2 | 20.8 | 7.1 | 10.5 | 6.5 | 14 | 48 | 225 | –
